Data from patent US12186467B2, “Cleaning of biological fluid” (GAMBRO LUNDIA AB, priority 2012, dated 2025).

How the values were obtained:
[1] = Precipitation observed in displacer/BSA/p-cresol solutions; format: physicochemical
Experimental: The mixed solutions were centrifuged to remove protein at 5700 rpm for 70 minutes at room temperature before analysis. The pH was adjusted to 7 (physiological pH) by addition of NaOH to the samples. The samples were injected into a HPLC. The measurement of p-cresol by HPLC analysis was performed at room temperature.
The influence of the pH value on the binding affinity of the p-cresol and the binding competitors to the bovine serum albumin (BSA) was investigated. […] The pH was adjusted by adding sodium hydroxide (NaOH) or hydrochloric acid (HCl). The tests were performed with the following displacer substances: sodium salicylate, sodium octanoate and sodium acetylsalicylate. […] At pH 5 the albumin exists in the N form. The results are present in Table 4

[2] = target: T1, bovine serum albumin (BSA) (Bos taurus, UniProt P02769); experiment: Removal of p-cresol from BSA by repeated addition of water and centrifugation; format: binding; conditions: pH 8
T1 construct: purchased Sigma-Aldrich
T1 sequence (P02769 25-607): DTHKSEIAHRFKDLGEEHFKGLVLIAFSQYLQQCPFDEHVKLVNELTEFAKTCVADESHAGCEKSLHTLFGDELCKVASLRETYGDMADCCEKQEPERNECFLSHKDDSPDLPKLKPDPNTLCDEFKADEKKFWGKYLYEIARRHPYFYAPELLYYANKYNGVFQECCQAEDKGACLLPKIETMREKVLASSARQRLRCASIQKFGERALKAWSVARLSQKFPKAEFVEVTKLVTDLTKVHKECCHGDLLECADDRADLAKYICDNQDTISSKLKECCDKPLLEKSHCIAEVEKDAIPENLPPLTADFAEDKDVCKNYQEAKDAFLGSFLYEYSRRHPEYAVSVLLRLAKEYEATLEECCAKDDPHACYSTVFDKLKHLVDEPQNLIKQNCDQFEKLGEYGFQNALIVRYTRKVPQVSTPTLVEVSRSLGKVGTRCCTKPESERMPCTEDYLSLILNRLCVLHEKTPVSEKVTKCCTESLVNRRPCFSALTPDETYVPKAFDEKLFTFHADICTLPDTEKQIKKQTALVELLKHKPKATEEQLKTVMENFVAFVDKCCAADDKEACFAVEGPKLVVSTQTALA
Experimental: The influence of water addition on the binding affinity of p-cresol to bovine serum albumin was investigated in this example, performed at room temperature. 1 ml of a solution comprising 0.02 mg/ml p-cresol and 40 mg/ml bovine serum albumin (BSA) was centrifuged (Visaspin®) for 20 minutes. 0.5 ml of the solution was removed and analysed.
0.5 ml water (Milli-Q quality) was added to the remaining 0.5 ml solution (p-cresol and BSA) and centrifuged (in Vivaspin®) for another 20 minutes before another 0.5 ml was removed for the analysis.
The previous experiment was repeated at elevated temperature. A 1 ml solution containing 0.02 mg/ml p-cresol and 40 mg/ml bovine serum albumin (BSA), pH 8, was centrifuged (Vivaspin®) at 50° C. for 20 minutes until 0.5 ml was removed and analysed. Then 0.5 ml water (Milli-Q) was added to the remaining 0.5 ml solution comprising p-cresol and BSA, centrifuged for 20 minutes until 0.5 ml was removed for the analysis.

In the case of O=C([O-])c1ccccc1O.[Na+] [sodium salicylate], the precipitation ([1]; sodium salicylate with BSA and p-cresol, pH 4) is reported as “precipitation occurred”.

For CCCCCCCC(=O)[O-].[Na+] [sodium octanoate], the precipitation ([1]; sodium octanoate 100 mg/ml and 200 mg/ml, pH 6) was “Precipitation occurred” and the precipitation ([1]; sodium octanoate with BSA and p-cresol, pH 5) was “precipitation of the solution was observed”.

With Cc1ccc(O)cc1 [p-cresol] the p-cresol considered unbound ([2]; after addition of 5 ml water, 50° C.) was “About 100%”, the “added p-cresol removed from the binding sites on BSA” value ([2]; water addition repeated 16 times, room temperature) was ~100% and the “calculated amount of p-cresol removed” value ([2]; water addition repeated 16 times, room temperature, 0.02 mg p-cresol added) was 0.01989 mg. The “measured amount of p-cresol” value ([2]; water addition repeated 20 times, 50° C., more than the added amount) was 0.027 mg.
